# Patent US8920851B2, “Treatment of neurodegenerative diseases” (Velacor Therapeutics Pty Ltd, priority 2006, dated 2014)
# Entries after “also recorded” stand apart in the source; their conditions may differ.
# Assays:
# Akt = Akt phosphorylation by immunoblot in PC3 prostate carcinoma cells; assay type: cell-based, human; conditions: for Akt phosphorylation at Ser473: PC3 cells, 500 μM of each compound, various timepoints
# Experimental: Such dephosphorylation may be the result of a direct inhibitory effect on the Akt protein itself, or alternatively, can be similarly achieved indirectly by boosting a negative regulator or inhibiting a positive regulator of Akt phosphorylation. […] PC3 prostate carcinoma cells were plated in 100 mm dishes, and when 70-80% confluent serum starved overnight. […] Cells were lysed, and the level of Akt Ser473 phosphorylation determined by immunoblot analysis with an activation specific antibody, and comparison made to levels of Akt protein expressed. To determine the effect on purified Akt, similarly plated but untreated PC3 cells were lysed in RIPA (minus phosphatase inhibitors), a stringent cell lysis buffer that minimizes maintenance of protein-protein complexes. […] The immunoprecipitated protein was then resolved and the level of activated Akt determined by immunoblot analysis as described above.
# A reduction in net Akt activity could be achieved indirectly by either preventing the initial Akt phosphorylation, or alternatively, increasing Akt dephosphorylation [Kohn et. al. 1996]. […] Initially okadaic acid, a polyether toxin from red-tide algae (and causative agent of diarrhoetic shellfish poisoning) which inhibits the phospho-protein phosphatases PP1 and PP2A, two phosphatases implicated in the regulation of Akt dephosphorylation was used [Fernandez et al., 2002]. 5×10^5 PC3 prostate carcinoma cells were plated per well of a 6 well plate, allowed attach for 8 h, and then serum starved overnight. […] Lysed cells were resolved by SDS-PAGE, then probed for Akt phosphorylation at the Ser473 residue by immunoblot analysis with an antibody that specifically recognizes Akt when phosphorylated at this site, and comparison made with the total levels of Akt protein expressed (FIG. 2A).
# This panel included tautamycin 500 nM (PP1), okadaic acid 500 nM (low dose PP2A>PP1), endothall A (PP2A) 100 μM, calyculin A 2 nM (low dose PP1>PP2A), calyculin A 10 nM (high dose inhibits PP1 and PP2A) and cyclosporine A 400 ng/ml (PP2B). […] Again, lysed cells were resolved by SDS-PAGE, then membranes probed for Akt phosphorylation at the Ser^473 residue by immunoblot analysis with an antibody that specifically recognizes Akt when phosphorylated at this site, and comparison made with the total levels of Akt protein expressed.
# 5×10^5 PC3 prostate carcinoma cells were plated per well in a 6-well plate, allowed to attach for 8 h, and then serum starved overnight. […] Equal amounts of whole cell lysates were resolved, and then subjected to immunoblot analysis to determine the level of phosphorylated Akt Ser^473. Comparison was then made with the total level of Akt protein expressed.
# The phosphorylation status of Akt in whole cell lysates was determined using activation specific antibodies.
# Other inorganic (sodium selenite, selenium dioxide, selenium sulphide and selenious acid) and organic (methylselenocysteine, selenocystine) selenium species were tested for their ability to affect Akt activation. All forms were dissolved in water with the exception of selenium sulphide which was solubilised in DMSO, and added to serum starved PC3 cells at a concentration of 500 μM for 1 hour, Whole cell lysates were then resolved, and the activation status of Akt determined by immunoblotting with an antibody that specifically recognizes Akt when phosphorylated at the Ser473 site, as well as the total level of Akt expression (pan Akt). To quantify the degree of Akt activation, immunoblots were digitalised, and the ratio of phosphorylated Akt to total Akt determined by densitometry.
# rabbit PP1 = conditions: 0.05 U PP1, 500 μM phospho-threonine peptide, 15 min at 37° C., 50 μM sodium selenate
# Experimental: (§1) 1 mg of synthetic phosphopeptides K-R-pT-I-R-R (Upstate #12-219) and R-R-A-pS-V-A (Upstate #12-220) were dissolved in 1.10-1.285 ml of dH2O to prepare a 1 mM solution, then aliquoted and stored at −20° C. until use. 0.01-0.05 U of purified PP2A A-C dimer purified from human red blood cells, or 0.05 U of rabbit PP1 purified from skeletal muscle was mixed with 500 μM of phosphopeptide and incubated in the presence of various treatments as indicated at 37° C. on a heating block for 15 min. Each reaction was made up to a total volume of 25 μl with pNPP buffer (50 mM Tris-HCl, pH 7.0, 100 μM CaCl2). The enzyme reaction was terminated by adding 100 μl of malachite green solution (0.034% malachite green in 10 mM ammonium molybdate, 1 N HCl, 3.4% ethanol, 0.01% Tween-20). Malachite green forms a stable green complex in the presence of molybdate and orthophosphate, allowing the amount of inorganic phosphate present to be measured. Absorbance was read in duplicate for each sample at 590 nm.
# [1] = molecular target: phosphatase activity associated with immunoprecipitated Akt protein (PP2A) (Homo sapiens, UniProt P67775); conditions: PC3 cells, 500 μM, 1 h
# Experimental: 2×10^6 PC3 cells were plated in 10 cm plates, allowed to attach for 8 hours, and then serum starved over night. […] 500-600 μg of total protein was then immunoprecipitated with anti-Akt (1:100) monoclonal antibody and 30 μl of Protein A slurry, and after washing, checked for free phosphate contamination by incubation of 25 μl of final wash buffer with Malachite Green. Immunoprecipitates were assayed for phosphatase activity by incubation with 500 μM synthetic phospho-threonine peptide for 10 min at 30° C. with agitation. Free phosphate was detected by the addition of malachite green solution, and absorbance was read at 590 nm, for each sample in duplicate.
# [2] = system: TAU441 transgenic (Tg) TMHT mice
# Text: This was done every Monday, Wednesday and Friday, and the water was weighed on exchange to measure consumption.
# PP2A A-C dimer = molecular target: T1, PP2A A-C dimer (Homo sapiens, UniProt P67775); test: Phosphopeptide / malachite green assay with purified PP2A; assay type: biochemical
# T1 construct: purified PP2A A-C dimer purified from human red blood cells; purchased Upstate 14-111 (lot #28002); host or cells: human red blood cells (native purification)
# Experimental: The amount of inorganic phosphate released by enzymatic activity was determined by the addition of malachite green, and absorbance read at 590 nm. Malachite green forms a stable green complex in the presence of molybdate and orthophosphate, allowing the concentration of inorganic phosphate present to be measured. Data is presented as mean absorbance at 590 nm from at least three independent experiments, ±SEM.
# as §1
# [3] = serum free PC3 cells, 500 μM, various times
# T1 sequence (P67775 whole entry): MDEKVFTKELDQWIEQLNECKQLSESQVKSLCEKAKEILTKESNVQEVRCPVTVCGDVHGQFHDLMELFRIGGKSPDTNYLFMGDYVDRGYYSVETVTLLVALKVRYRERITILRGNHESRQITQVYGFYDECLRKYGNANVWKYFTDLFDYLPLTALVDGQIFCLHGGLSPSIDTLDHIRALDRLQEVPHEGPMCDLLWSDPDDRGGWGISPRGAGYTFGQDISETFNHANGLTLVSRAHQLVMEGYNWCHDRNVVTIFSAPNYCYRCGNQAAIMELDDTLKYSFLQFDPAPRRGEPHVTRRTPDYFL
# T1 sequence (P30153 2-589 partner limits assumed): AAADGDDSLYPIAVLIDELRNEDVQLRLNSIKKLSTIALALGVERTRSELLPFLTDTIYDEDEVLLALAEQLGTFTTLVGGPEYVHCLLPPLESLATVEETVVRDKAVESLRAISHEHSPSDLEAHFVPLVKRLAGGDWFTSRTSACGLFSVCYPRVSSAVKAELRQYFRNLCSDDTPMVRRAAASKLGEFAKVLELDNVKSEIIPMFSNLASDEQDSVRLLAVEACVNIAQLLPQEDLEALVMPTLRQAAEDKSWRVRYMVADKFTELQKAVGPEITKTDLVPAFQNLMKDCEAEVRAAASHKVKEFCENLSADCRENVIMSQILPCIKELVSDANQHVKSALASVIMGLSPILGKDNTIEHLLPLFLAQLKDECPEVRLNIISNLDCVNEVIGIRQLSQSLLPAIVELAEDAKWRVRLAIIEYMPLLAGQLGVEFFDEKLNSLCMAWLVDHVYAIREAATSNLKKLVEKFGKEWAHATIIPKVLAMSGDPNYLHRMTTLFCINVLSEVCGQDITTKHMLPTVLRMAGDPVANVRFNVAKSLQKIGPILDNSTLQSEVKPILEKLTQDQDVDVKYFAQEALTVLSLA
# phosphatase activity associated with immunoprecipitated Akt protein (PP2A), sequence (P67775 whole entry): as the sequence (P67775 whole entry) above
# phosphatase activity associated with immunoprecipitated Akt protein (PP2A), sequence (P30153 2-589, further chain): as the sequence (P30153 2-589 partner limits assumed) above
structure (smiles),measurement,setting,value
O=[Se](=O)(O)O [sodium selenate],Akt phosphorylation at Ser473,Akt,profoundly inhibited Akt phosphorylation
same,Akt phosphorylation at Ser473,Akt; listed as selenate,inhibited Akt phosphorylation
same,Akt Ser473 phosphorylation,"Akt; intact serum starved PC3 cells, sodium selenate 500 μM, 1 h",profound reduction in Akt phosphorylation; also recorded: markedly reduces the chronically high levels of Akt phosphorylation; also recorded: marked decrease in the phosphorylation of Akt; also recorded: markedly reduced the level of Akt phosphorylation
same,"phosphorylation of Akt at Ser473 and Thre308, after the initial boost",Akt; [3],marked and prolonged deactivation
same,total cellular Akt levels (pan Akt),Akt; [3],remained essentially unchanged
same,"phosphorylation of Akt at Ser473 and Thre308, early","Akt; serum free PC3 cells, 500 μM, within 10 minutes of exposure",transient boost in phosphorylation of Akt
same,Akt activation: ratio of phosphorylated Akt to total Akt versus control,"Akt; serum starved PC3 cells, 500 μM, 1 hour, densitometry",inhibits activation of Akt
same,reduction in Akt phosphorylation at Ser473 compared to untreated cells,"Akt; serum starved PC3 cells, 500 μM, 1 hour, densitometry, p<0.05",greater than 80%
same,phosphatase activity of PP1,rabbit PP1,did not affect the phosphatase activity of PP1
same,phosphatase activity associated with immunoprecipitated Akt protein,[1],more than doubled
same,"Open Field activity parameters (activity, hyperactivity, rearing behaviour)","[2]; 1.2 mg per 100 mL drinking water, 12 weeks",uninfluenced
same,finding the platform in the Morris Water Maze versus three months younger baseline group,[2]; day 1,faster
same,finding the platform in the Morris Water Maze versus vehicle,"[2]; day 1, 2 and 3, p≦0.01",faster
same,"thigmotaxis: abidance in the centre of the Open Field box, turn 1","[2]; drinking water, 1.5 months after treatment start, versus vehicle, T-test p=0.019",significant higher abidance in the centre of the Open Field box
same,curiosity behaviour (Nose poke),"[2]; drinking water, 12 weeks",remained unchanged
same,motor performance (Rota Rod),"[2]; drinking water, 12 weeks",remained unchanged
same,negative side effects and premature deaths,"[2]; drinking water, 12 weeks",did not lead to any negative side effects or caused any premature deaths
same,"thigmotactic behaviour, turn 2","[2]; drinking water, end of treatment",normalized to the level of the vehicle controls
same,"PP2A phosphatase activity, serine phosphopeptide as substrate",PP2A A-C dimer; 50 μM of each selenium compound,clear boost in phosphatase activity
same,inorganic phosphate released from phosphopeptide by PP2A,"PP2A A-C dimer; 0.01-0.05 U PP2A, 500 μM phosphopeptide, 15 min at 37° C., 50 μM sodium selenate",more than doubled
